Measured values reported in patent EP1974751A1, “Formulations for non-steroidal anti-inflammatory drugs” (The Jordanian Pharmaceutical Manufacturing Co., priority 2007, dated 2008).

SMILES: OC[C@H]1O[C@@H]2O[C@H]3[C@H](O)[C@@H](O)[C@@H](O[C@H]4[C@H](O)[C@@H](O)[C@@H](O[C@H]5[C@H](O)[C@@H](O)[C@@H](O[C@H]6[C@H](O)[C@@H](O)[C@@H](O[C@H]7[C@H](O)[C@@H](O)[C@@H](O[C@H]8[C@H](O)[C@@H](O)[C@@H](O[C@H]1[C@H](O)[C@H]2O)O[C@@H]8CO)O[C@@H]7CO)O[C@@H]6CO)O[C@@H]5CO)O[C@@H]4CO)O[C@@H]3CO [β-cyclodextrin]
- optimal solubility of β-cyclodextrin (distilled water): 20 mM
- β-cyclodextrin solubility (water): 230 mM
